ChEMBL document CHEMBL1146731, “Design, synthesis, and structure-activity relationships of pyrazolo[3,4-d]pyrimidines: a novel class of potent enterovirus inhibitors” (Bioorg Med Chem Lett, 2004)

Key:
Coxsackievirus [1] = test: Inhibitory concentration to prevent formation of Coxsackievirus B3 (CVB3) plaques; format: functional, organism-based
Enterovirus [2] = test: Inhibitory concentration to prevent formation of Enterovirus (EV 71) plaques; format: functional, organism-based
Rhabdomyosarcoma cell = test: Cytotoxic effect of compound towards human Rhabdomyosarcoma cell line was evaluated; format: functional, cell-based
Coxsackievirus [3] = test: Inhibitory concentration of compound against formation of Coxsackievirus A10 plaque in plaque reduction assay; format: functional, organism-based
Coxsackievirus [4] = test: Inhibitory concentration of compound against formation of Coxsackievirus A24 plaque in plaque reduction assay; format: functional, organism-based
Coxsackievirus [5] = test: Inhibitory concentration of compound against formation of Coxsackievirus A9 plaque in plaque reduction assay; format: functional, organism-based
Coxsackievirus [6] = test: Inhibitory concentration of compound against formation of Coxsackievirus B2 plaque in plaque reduction assay; format: functional, organism-based
Coxsackievirus [7] = test: Inhibitory concentration of compound against formation of Coxsackievirus B3 plaque in plaque reduction assay; format: functional, organism-based
Coxsackievirus [8] = test: Inhibitory concentration of compound against formation of Coxsackievirus B4 plaque in plaque reduction assay; format: functional, organism-based
Coxsackievirus [9] = test: Inhibitory concentration of compound against formation of Coxsackievirus B5 plaque in plaque reduction assay; format: functional, organism-based
Coxsackievirus [10] = test: Inhibitory concentration of compound against formation of Coxsackievirus B6 plaque in plaque reduction assay; format: functional, organism-based
Echovirus [11] = test: Inhibitory concentration of compound against formation of Echovirus 29 virus plaque in plaque reduction assay; format: functional, organism-based
Echovirus [12] = test: Inhibitory concentration of compound against formation of Echovirus 9 virus plaque in plaque reduction assay; format: functional, organism-based
Enterovirus [13] = test: Inhibitory concentration of compound against formation of Enterovirus 68 (EV 68) plaque in plaque reduction assay; format: functional, organism-based
Enterovirus [14] = test: Inhibitory concentration of compound against formation of Enterovirus 71 (1743) genotype B plaque in plaque reduction assay; format: functional, organism-based
Enterovirus [15] = test: Inhibitory concentration of compound against formation of Enterovirus 71 (2231) genotype C plaque in plaque reduction assay; format: functional, organism-based
Enterovirus [16] = test: Inhibitory concentration of compound against formation of Enterovirus 71 (BrCr) genotype A plaque in plaque reduction assay; format: functional, organism-based
Influenza B virus = test: Inhibitory concentration of compound against formation of Influenza A virus (HK) plaque in plaque reduction assay; format: functional, organism-based
Influenza A virus = test: Inhibitory concentration of compound against formation of Influenza A virus (WSN) plaque in plaque reduction assay; format: functional, organism-based
Human rhinovirus sp. [17] = test: Inhibitory concentration of compound against formation of Human rhinovirus 14 plaque in plaque reduction assay; format: functional, organism-based
Human rhinovirus sp. [18] = test: Inhibitory concentration of compound against formation of Human rhinovirus 2 plaque in plaque reduction assay; format: functional, organism-based
Coxsackievirus [19] = test: Inhibitory concentration of compound against formation of Coxsackievirus B1 plaque in plaque reduction assay; format: functional, organism-based
Coxsackievirus [20] = test: Inhibitory concentration of compound against formation of Coxsackievirus A16 plaque in plaque reduction assay; format: functional, organism-based
Human alphaherpesvirus 1 = test: Inhibitory concentration of compound against formation of Herpes simplex virus 1 plaque in plaque reduction assay

## c1ccc(C(c2nccs2)N2CCN(c3ncnc4c3cnn4-c3ccccc3)CC2)cc1 (stereo unspecified)
Coxsackievirus [1]
  IC50: 110 nM
Enterovirus [2]
  IC50: 340 nM
Rhabdomyosarcoma cell
  IC50: > 25000 nM

## FC(F)(F)c1ccc(C(c2ccccc2)N2CCN(c3ncnc4c3cnn4-c3ccccc3)CC2)cc1 (stereo unspecified)
Coxsackievirus [1]
  IC50: 300 nM
Enterovirus [2]
  IC50: 1650 nM
Rhabdomyosarcoma cell
  IC50: > 25000 nM

## c1ccc(C(c2ccccc2)N2CCN(c3ncnc4c3cnn4-c3ccccc3)CC2)cc1
Coxsackievirus [3]
  IC50: 390 nM
Coxsackievirus [4]
  IC50: 50 nM
Coxsackievirus [5]
  IC50: 260 nM
Coxsackievirus [6]
  IC50: 80 nM
Coxsackievirus [1]
  IC50: 150 nM
Coxsackievirus [7]
  IC50: 150 nM
Coxsackievirus [8]
  IC50: 160 nM
Coxsackievirus [9]
  IC50: 440 nM
Coxsackievirus [10]
  IC50: 940 nM
Echovirus [11]
  IC50: > 25000 nM
Echovirus [12]
  IC50: 300 nM
Enterovirus [2]
  IC50: 410 nM
Enterovirus [13]
  IC50: 180 nM
Enterovirus [14]
  IC50: 470 nM
Enterovirus [15]
  IC50: 520 nM
Enterovirus [16]
  IC50: 350 nM
Influenza B virus
  IC50: > 25000 nM
Influenza A virus
  IC50: > 25000 nM
Human rhinovirus sp. [17]
  IC50: > 25000 nM
Human rhinovirus sp. [18]
  IC50: > 25000 nM
Rhabdomyosarcoma cell
  IC50: > 25000 nM
Coxsackievirus [19]; Coxsackievirus
  IC50: 690 nM
Coxsackievirus [20]
  IC50: 230 nM
Human alphaherpesvirus 1
  IC50: > 25000 nM

## c1ccc(C(c2ccncc2)N2CCN(c3ncnc4c3cnn4-c3ccccc3)CC2)cc1 (stereo unspecified)
Coxsackievirus [1]
  IC50: 300 nM
Enterovirus [2]
  IC50: 780 nM
Rhabdomyosarcoma cell
  IC50: > 25000 nM

## c1ccc(Cn2ncc3c(N4CCN(C(c5ccccc5)c5ccccc5)CC4)ncnc32)cc1
Coxsackievirus [1]
  IC50: > 25000 nM
Enterovirus [2]
  IC50: > 25000 nM
Rhabdomyosarcoma cell
  IC50: > 25000 nM

## c1ccc(-c2ccc(C(c3ccccc3)N3CCN(c4ncnc5c4cnn5-c4ccccc4)CC3)cc2)cc1 (stereo unspecified)
Coxsackievirus [1]
  IC50: 310 nM
Enterovirus [2]
  IC50: 1900 nM
Rhabdomyosarcoma cell
  IC50: > 25000 nM

## Cc1ccsc1C(c1ccccn1)N1CCN(c2ncnc3c2cnn3-c2ccccc2)CC1 (stereo unspecified)
Coxsackievirus [1]
  IC50: 63 nM
Enterovirus [2]
  IC50: 360 nM
Rhabdomyosarcoma cell
  IC50: > 25000 nM

## Brc1ccc(C(c2ccccc2)N2CCN(c3ncnc4c3cnn4-c3ccccc3)CC2)cc1 (stereo unspecified)
Coxsackievirus [1]
  IC50: 490 nM
Enterovirus [2]
  IC50: 910 nM
Rhabdomyosarcoma cell
  IC50: > 25000 nM

## Cc1noc(C)c1C(c1ccccc1)N1CCN(c2ncnc3c2cnn3-c2ccccc2)CC1 (stereo unspecified)
Coxsackievirus [1]
  IC50: 95 nM
Enterovirus [2]
  IC50: 580 nM
Rhabdomyosarcoma cell
  IC50: > 25000 nM

## Cc1ccccc1C(c1sccc1C)N1CCN(c2ncnc3c2cnn3-c2ccccc2)CC1 (stereo unspecified)
Coxsackievirus [1]
  IC50: 84 nM
Enterovirus [2]
  IC50: 410 nM
Rhabdomyosarcoma cell
  IC50: > 25000 nM

## Cc1ccsc1C(c1c(C)noc1C)N1CCN(c2ncnc3c2cnn3-c2ccccc2)CC1 (stereo unspecified)
Coxsackievirus [1]
  IC50: 81 nM
Enterovirus [2]
  IC50: 650 nM
Rhabdomyosarcoma cell
  IC50: > 25000 nM

## c1ccc(C(c2ccccc2)N2CCN(c3[nH]cnc4nncc3-4)CC2)cc1
Coxsackievirus [1]
  IC50: > 25000 nM
Enterovirus [2]
  IC50: > 25000 nM
Rhabdomyosarcoma cell
  IC50: > 25000 nM

## Cc1ccccc1C(c1ccccc1)N1CCN(c2ncnc3c2cnn3-c2ccccc2)CC1 (stereo unspecified)
Coxsackievirus [1]
  IC50: 310 nM
Enterovirus [2]
  IC50: 1980 nM
Rhabdomyosarcoma cell
  IC50: > 25000 nM

## N#Cc1ccc(C(c2ccccc2)N2CCN(c3ncnc4c3cnn4-c3ccccc3)CC2)cc1 (stereo unspecified)
Coxsackievirus [1]
  IC50: 180 nM
Enterovirus [2]
  IC50: 940 nM
Rhabdomyosarcoma cell
  IC50: > 25000 nM

## c1ccc(C(c2cccnc2)N2CCN(c3ncnc4c3cnn4-c3ccccc3)CC2)cc1 (stereo unspecified)
Coxsackievirus [1]
  IC50: 530 nM
Enterovirus [2]
  IC50: 4600 nM
Rhabdomyosarcoma cell
  IC50: > 25000 nM

## c1ccc(C(c2ccccn2)N2CCN(c3ncnc4c3cnn4-c3ccccc3)CC2)cc1 (stereo unspecified)
Coxsackievirus [1]
  IC50: 170 nM
Enterovirus [2]
  IC50: 370 nM
Rhabdomyosarcoma cell
  IC50: > 25000 nM

## Cc1ccsc1C(c1ccccc1)N1CCN(c2ncnc3c2cnn3-c2ccccc2)CC1 (stereo unspecified)
Coxsackievirus [1]
  IC50: 89 nM
Enterovirus [2]
  IC50: 460 nM
Rhabdomyosarcoma cell
  IC50: > 25000 nM

## Cn1ncc2c(N3CCN(C(c4ccccc4)c4ccccc4)CC3)ncnc21
Coxsackievirus [1]
  IC50: > 25000 nM
Enterovirus [2]
  IC50: > 25000 nM
Rhabdomyosarcoma cell
  IC50: > 25000 nM

## c1ccc(C(c2ccco2)N2CCN(c3ncnc4c3cnn4-c3ccccc3)CC2)cc1 (stereo unspecified)
Coxsackievirus [1]
  IC50: 270 nM
Enterovirus [2]
  IC50: 1250 nM
Rhabdomyosarcoma cell
  IC50: > 25000 nM

## Cc1ccsc1C(c1ccccc1Br)N1CCN(c2ncnc3c2cnn3-c2ccccc2)CC1 (stereo unspecified)
Coxsackievirus [1]
  IC50: 72 nM
Enterovirus [2]
  IC50: 320 nM
Rhabdomyosarcoma cell
  IC50: > 25000 nM

## CCCn1ncc2c(N3CCN(C(c4ccccc4)c4ccccc4)CC3)ncnc21
Coxsackievirus [1]
  IC50: > 25000 nM
Enterovirus [2]
  IC50: > 25000 nM
Rhabdomyosarcoma cell
  IC50: > 25000 nM

## O=C1N(CCCCCCOc2ccc(Br)cc2)CCN1c1ccncc1
Coxsackievirus [7]
  IC50: > 25000 nM
Coxsackievirus [8]
  IC50: > 25000 nM
Coxsackievirus [9]
  IC50: > 25000 nM
Coxsackievirus [10]
  IC50: > 25000 nM
Echovirus [11]
  IC50: > 25000 nM
Echovirus [12]
  IC50: 2820 nM
Influenza B virus
  IC50: > 25000 nM
Influenza A virus
  IC50: > 25000 nM
Human rhinovirus sp. [17]
  IC50: 11600 nM
Human rhinovirus sp. [18]
  IC50: > 25000 nM
Coxsackievirus [19]
  IC50: > 25000 nM
Coxsackievirus [20]
  IC50: > 25000 nM
Human alphaherpesvirus 1
  IC50: > 25000 nM

## N#Cc1cccc(C(c2ccccc2)N2CCN(c3ncnc4c3cnn4-c3ccccc3)CC2)c1 (stereo unspecified)
Coxsackievirus [1]
  IC50: 110 nM
Enterovirus [2]
  IC50: 780 nM
Rhabdomyosarcoma cell
  IC50: > 25000 nM

## Clc1ccc(C(c2ccccc2)N2CCN(c3ncnc4c3cnn4-c3ccccc3)CC2)cc1 (stereo unspecified)
Coxsackievirus [1]
  IC50: 260 nM
Enterovirus [2]
  IC50: 1970 nM
Rhabdomyosarcoma cell
  IC50: > 25000 nM

## CCn1ncc2c(N3CCN(C(c4ccccc4)c4ccccc4)CC3)ncnc21
Coxsackievirus [1]
  IC50: > 25000 nM
Enterovirus [2]
  IC50: > 25000 nM
Rhabdomyosarcoma cell
  IC50: > 25000 nM
